Experiments:
[1] = test system: Magnaporthe grisea (Pyricularia oryzae); test: microbe, parasite or virus in culture; type: cell-based; details: read-out: control of Magnaporthe grisea
[2] = test system: Botryotinia fuckeliana (Botrytis cinerea); test: Botryotinia fuckeliana (Botrytis cinerea) / liquid culture (gray mould); type: cell-based; details: 72 h, compared to untreated control, growth inhibition determined photometrically 3-4 days after application
[3] = test system: Monographella nivalis (Microdochium nivale); test: Monographella nivalis (Microdochium nivale) / liquid culture (foot rot cereals); type: cell-based; details: compared to untreated control, growth inhibition determined photometrically 4-5 days after application
[4] = test system: Glomerella lagenarium (Colletotrichum lagenarium); test: Glomerella lagenarium (Colletotrichum lagenarium) / liquid culture (anthracnose); type: cell-based; details: Colletotrichum orbiculare, compared to untreated control, growth inhibition measured photometrically 3-4 days after application
[5] = test system: Mycosphaerella graminicola (Septoria tritici); test: Mycosphaerella graminicola (Septoria tritici) / liquid culture (Septoria blotch); type: cell-based; details: Zymoseptoria tritici, compared to untreated control, growth inhibition determined photometrically 4-5 days after application
Fusarium culmorum = test: microbe, parasite or virus in culture; type: cell-based; details: read-out: control of Fusarium culmorum
Sclerotinia sclerotiorum = test: microbe, parasite or virus in culture; type: cell-based; details: read-out: control of Sclerotinia sclerotiorum

SMILES | inhibition of growth at 20 ppm [1] [%] | inhibition of growth at 20 ppm [2] [%] | inhibition of growth at 20 ppm [3] [%] | inhibition of growth at 20 ppm [4] [%] | inhibition of growth at 20 ppm [5] [%] | melting point [°C] | inhibition of growth at 20 ppm (Fusarium culmorum) [%] | inhibition of growth at 20 ppm (Sclerotinia sclerotiorum) [%]
CC1(C)CC(C)(C(F)(F)c2ccccc2)N=C(c2cnc3c(F)cccc3c2)O1 (stereo not shown) [E-14, 4-[difluoro(phenyl)methyl]-2-(8-fluoro-3-quinolyl)-4,6,6-trimethyl-5H-1,3-oxazine] | ≥ 80 | ≥ 80 | ≥ 80 | ≥ 80 | ≥ 70 | 101 to 105 | – | –
C[C@@]1(Cc2ccccc2)C[C@](C)(CCl)OC(c2cnc3c(F)cccc3c2)=N1 [E-11, (4R,6R)-4-benzyl-6-(chloromethyl)-2-(8-fluoro-3-quinolyl)-4,6-dimethyl-5H-1,3-oxazine] | ≥ 80 | ≥ 80 | ≥ 80 | ≥ 80 | ≥ 70 | – | ≥ 80 | –
Fc1ccc2cc(C3=NC(Cc4ccccc4)CC(CI)O3)cnc2c1F (stereo not shown) [E-26, 4-benzyl-2-(7,8-difluoro-3-quinolyl)-6-(iodomethyl)-5,6-dihydro-4H-1,3-oxazine] | – | ≥ 80 | – | – | – | 137 to 139 | ≥ 80 | –
CCC1(C)CC(C)(Cc2ccccc2)N=C(c2cnc3c(F)cccc3c2)O1 (stereo not shown) [E-9, 4-benzyl-6-ethyl-2-(8-fluoro-3-quinolyl)-4,6-dimethyl-5H-1,3-oxazine] | ≥ 80 | ≥ 80 | ≥ 80 | ≥ 80 | ≥ 70 | – | ≥ 80 | ≥ 80
CC1(C)CC(Cc2ccccc2)N=C(c2cnc3c(F)c(F)ccc3c2)O1 (stereo not shown) [F-6] | – | – | – | – | – | 102 to 105 | – | –
CC1(C)CC(Cc2ccccc2)N=C(c2cnc3c(F)c(F)ccc3c2)S1 (stereo not shown) [E-6, 4-benzyl-2-(7,8-difluoro-3-quinolyl)-6,6-dimethyl-4,5-dihydro-1,3-thiazine] | – | ≥ 80 | ≥ 80 | ≥ 80 | – | 153 to 155 | ≥ 80 | –
CC1(C)CC(Cc2ccccc2)N=C(c2cnc3c(Cl)cccc3c2)O1 (stereo not shown) [E-3, 4-benzyl-2-(8-chloro-3-quinolyl)-6,6-dimethyl-4,5-dihydro-1,3-oxazine] | – | ≥ 80 | ≥ 80 | – | ≥ 70 | 150 to 152 | – | –
CC1(C)CC(Cc2ccccc2)(C(F)(F)F)N=C(c2cnc3c(F)cccc3c2)O1 (stereo not shown) [E-12, 4-benzyl-2-(8-fluoro-3-quinolyl)-6,6-dimethyl-4-(trifluoromethyl)-5H-1,3-oxazine] | ≥ 80 | ≥ 80 | ≥ 80 | ≥ 80 | – | – | – | –
CC1(C)CC(Cc2ccccc2)N=C(c2cc3cccc(F)c3nc2Cl)O1 (stereo not shown) [E-36, 4-benzyl-2-(2-chloro-8-fluoro-3-quinolyl)-6,6-dimethyl-4,5-dihydro-1,3-oxazine] | – | – | – | – | ≥ 70 | – | – | –
CC1(CCl)CC(Cc2ccccc2)N=C(c2cnc3c(F)c(F)ccc3c2)O1 (stereo not shown) [E-1, 4-benzyl-6-(chloromethyl)-2-(7,8-difluoro-3-quinolyl)-6-methyl-4,5-dihydro-1,3-oxazine] | – | ≥ 80 | ≥ 80 | – | ≥ 70 | – | ≥ 80 | –
CC1(Cc2ccccc2)CC(C)(C)OC(c2cnc3c(F)cccc3c2)=N1 (stereo not shown) [F-1] | – | – | – | – | – | 109 to 111 | – | –
Cc1c(C2=NC(C)(Cc3ccccc3)CC(C)(C)O2)cnc2c(F)cccc12 (stereo not shown) [E-15, 4-benzyl-2-(8-fluoro-4-methyl-3-quinolyl)-4,6,6-trimethyl-5H-1,3-oxazine] | ≥ 80 | ≥ 80 | ≥ 80 | ≥ 80 | ≥ 70 | – | – | –
Fc1ccc2cc(C3=NC(Cc4ccccc4)CC4(CCCC4)O3)cnc2c1Cl (stereo not shown) [E-35, 9-benzyl-7-(8-chloro-7-fluoro-3-quinolyl)-6-oxa-8-azaspiro[4.5]dec-7-ene] | – | ≥ 80 | ≥ 80 | – | ≥ 70 | 150 to 151 | – | –
CC1(C)CC(Cc2ccccc2)N=C(c2cnc3c(F)c(F)ccc3c2)O1 (stereo not shown) [E-8, 4-benzyl-2-(7,8-difluoro-3-quinolyl)-6,6-dimethyl-4,5-dihydro-1,3-oxazine] | – | – | – | ≥ 80 | – | 93 to 96 | – | –
CC1(Cc2ccccc2)CC(C)(C)OC(c2cnc3c(F)cccc3c2)=N1 (stereo not shown) [F-2] | – | – | – | – | – | 111 to 112 | – | ≥ 80
CC1(C)CC(Cc2ccccc2)N=C(c2cnc3ccccc3c2)O1 (stereo not shown) [E-5, 4-benzyl-6,6-dimethyl-2-(3-quinolyl)-4,5-dihydro-1,3-oxazine] | – | ≥ 80 | ≥ 80 | ≥ 80 | ≥ 70 | – | ≥ 80 | –
N#Cc1c(F)ccc2cc(C3=NC(Cc4ccccc4)CC4(CCCC4)O3)cnc12 (stereo not shown) [E-27, 3-(9-benzyl-6-oxa-8-azaspiro[4.5]dec-7-en-7-yl)-7-fluoro-quinoline-8-carbonitrile] | – | ≥ 80 | – | – | – | – | – | –
CC1(C)CC(Cc2ccc(F)cc2)N=C(c2cnc3c(F)c(F)ccc3c2)O1 (stereo not shown) [E-18, 2-(7,8-difluoro-3-quinolyl)-4-[(4-fluorophenyl)methyl]-6,6-dimethyl-4,5-dihydro-1,3-oxazine] | ≥ 80 | ≥ 80 | ≥ 80 | – | ≥ 70 | 118 to 121 | – | ≥ 80
CC1(C)CC(Cc2ccccc2)N=C(c2cnc3c(F)c(C#N)ccc3c2)O1 (stereo not shown) [E-34, 3-(4-benzyl-6,6-dimethyl-4,5-dihydro-1,3-oxazin-2-yl)-8-fluoro-quinoline-7-carbonitrile] | – | – | ≥ 80 | ≥ 80 | – | – | – | –
CC1(C)CC(Cc2ccccc2)N=C(c2cnc3c(F)c(Cl)ccc3c2)O1 (stereo not shown) [E-29, 4-benzyl-2-(7-chloro-8-fluoro-3-quinolyl)-6,6-dimethyl-4,5-dihydro-1,3-oxazine] | – | – | ≥ 80 | ≥ 80 | ≥ 70 | 135 to 137 | – | –
Cc1cccc2cc(C3=NC(Cc4ccccc4)CC(C)(C)O3)cnc12 (stereo not shown) [E-4, 4-benzyl-6,6-dimethyl-2-(8-methyl-3-quinolyl)-4,5-dihydro-1,3-oxazine] | – | ≥ 80 | ≥ 80 | – | ≥ 70 | 120 to 122 | – | –
CC1(Cc2ccccc2)CC(C)(C)OC(c2cnc3c(F)cccc3c2)=N1 (stereo not shown) [E-17, 4-benzyl-2-(8-fluoro-3-quinolyl)-4,6,6-trimethyl-5H-1,3-oxazine] | ≥ 80 | ≥ 80 | ≥ 80 | ≥ 80 | ≥ 70 | 115 to 116 | ≥ 80 | –
CC1(C)CC(Cc2ccccc2)N=C(c2cnc3c(C#N)c(F)ccc3c2)O1 (stereo not shown) [E-28, 3-(4-benzyl-6,6-dimethyl-4,5-dihydro-1,3-oxazin-2-yl)-7-fluoro-quinoline-8-carbonitrile] | ≥ 80 | ≥ 80 | ≥ 80 | – | – | 126 to 133 | – | –
CC1(C)CC(Cc2ccccc2)N=C(c2cnc3cc(F)ccc3c2)O1 (stereo not shown) [E-32, 4-benzyl-2-(7-fluoro-3-quinolyl)-6,6-dimethyl-4,5-dihydro-1,3-oxazine] | – | ≥ 80 | ≥ 80 | – | ≥ 70 | – | ≥ 80 | –
CC1(C)CC(Cc2ccccc2)N=C(c2cnc3c(C#N)cccc3c2)O1 (stereo not shown) [E-2, 3-(4-benzyl-6,6-dimethyl-4,5-dihydro-1,3-oxazin-2-yl)quinoline-8-carbonitrile] | – | – | ≥ 80 | – | ≥ 70 | – | ≥ 80 | –
Cc1nc2c(F)cccc2cc1C1=NC(C)(Cc2ccccc2)CC(C)(C)O1 (stereo not shown) [E-16, 4-benzyl-2-(8-fluoro-2-methyl-3-quinolyl)-4,6,6-trimethyl-5H-1,3-oxazine] | ≥ 80 | ≥ 80 | ≥ 80 | ≥ 80 | ≥ 70 | – | ≥ 80 | ≥ 80
CC1CC(Cc2ccccc2)N=C(c2cnc3c(F)c(F)ccc3c2)O1 (single isomer, unassigned) [E-25, 4-benzyl-2-(7,8-difluoro-3-quinolyl)-6-methyl-5,6-dihydro-4H-1,3-oxazine] | – | ≥ 80 | ≥ 80 | ≥ 80 | ≥ 70 | – | ≥ 80 | –
CC1(C)CC(Cc2ccccc2)N=C(c2cnc3cc(Cl)ccc3c2)O1 (stereo not shown) [E-33, 4-benzyl-2-(7-chloro-3-quinolyl)-6,6-dimethyl-4,5-dihydro-1,3-oxazine] | – | – | ≥ 80 | – | ≥ 70 | – | – | –
CC1(C)CC(Cc2ccccc2)N=C(c2cc3cccc(F)c3nc2F)O1 (stereo not shown) [E-30, 4-benzyl-2-(2,8-difluoro-3-quinolyl)-6,6-dimethyl-4,5-dihydro-1,3-oxazine] | ≥ 80 | ≥ 80 | ≥ 80 | – | ≥ 70 | 105 to 107 | ≥ 80 | –

Reference: US12012399B2, “Microbiocidal quinoline dihydro-(thiazine)oxazine derivatives” (priority 2018, dated 2024)
